Laboratory results taken from patent US9211249B2, “Methods and compositions for transdermal delivery of caffeine in the form of solutions or suspensions” (priority 2013, dated 2015).

Assay: Solubility of caffeine in caffeine-containing compositions containing various helper esters
Conditions: compared with caffeine in pure water; Tables 1-9

CC(C)OC(=O)[C@@H](N)Cc1c[nH]c2ccccc12 [tryptophan isopropyl ester]
solubility of caffeine in water with helper ester (statement in words): increased
